How the values were obtained:
[1] = target: human BTK (Homo sapiens (Human), UniProt Q06187); experiment: BTK LANTHASCREEN Eu Kinase Binding Assay; details: IC50 value ± standard deviation; full-length His-labeled BTK, kinase tracer 236; read-out: hBTK Rel IC50
Experimental: (§1) BTK and EGFR in Vitro Assays:
(§2) The BTK and EGFR biochemical assays utilize LANTHASCREEN® Eu Kinase Binding Assays from Thermo Fisher Scientific, measuring the binding of the kinase with a […] tracer. The assay buffer consists of 50 mM HEPES pH 7.5, 0.01% BRU™-35, 10 mM MgCl2, 1 mM EGTA, and 1 mM DTT. The test compounds are diluted and added to the assay plate with a Labcyte ECHO® 555 liquid handler. The compounds are tested in 10 point dose response curves (100 μM-0.005 μM) with a maximum DMSO concentration of 1%. The assays are performed in 20 μL in low-volume 384-well white proxiplates. For the BTK assay, the concentration of full-length His-labeled BTK in the assay is 5 nM, the Eu-anti-His antibody is 2 nM, and the kinase tracer 236 is 60 nM. For the EGFR assay, the concentration of truncated (amino acids 668-1210) GST-labeled EGFR is 5 nM, the Eu-anti-GST antibody is 2 nM, and the kinase tracer 199 is 10 nM. The components of the assay (compound, enzyme/antibody, tracer) are assembled and incubated for 30 min prior to being read on a Perkin-Elmer EnVision with excitation at 340 nm, tracer emission at 665 nm, and antibody emission at 615 nm. The signal ratio is converted to percent inhibition using the following equation: % Inhibition=100−[(Test Compound−Median Minimum)/(Median Maximum−Median Minimum)×100].
(§3) The following Table 1 and Table 2 describes the relative IC50 data vs. human BTK, human EGFR, and human whole blood CD69.

[2] = tested on: activated B cells in human whole blood (CD69); experiment: Human Whole Blood CD69 in vitro assay (B cell activation, flow cytometry); format: cell-based; details: IC50 value ± standard deviation, anti-human-IgD-Dextran stimulation, read-out: HWB CD69 Rel IC50
Experimental: Human Whole Blood CD69 in Vitro Assay:
The HWB CD69 assay measures activated B cells in human whole blood using a flow cytometer. Compounds are diluted and added to assay plates with a Labcyte ECHO® 555 liquid handler. Compounds are tested in 10 point dose response curves (20 μM-0.001 μM) in 96-well v-bottom plates with a maximum DMSO concentration of 0.2%. Fresh blood from individual healthy volunteer is mixed with HEPES (0.5 ml HEPES added per 10 ml blood) and 100 μl/well is added to compound plates. The plates are sealed and incubated in a 37° C. incubator for 3 h. Anti-human-IgD-Dextran is added to each well to give a final concentration of 100 ng/ml, mixed, and put back into the incubator. After 1 h, the cells are washed with cold FACS buffer and transferred to a deep well plate. The cells are incubated with anti-human CD69-PE (BIOLEGEND®, clone FN50) and anti-human CD19-APC (BIOLEGEND®, clone HIB19) antibodies on ice for 20 min. The cells are washed and incubated in eBioscience™ 1-step Fix/Lyse solution (10×) at RT to lyse the red blood cells and fix the other cells. The white cells are pelleted and washed in FACS buffer and then brought up in read buffer. The suspended cells are transferred to 96-well round bottom plates and read on an IntelliCyt iQue® Screener Plus flow cytometer. From the SSC (Side Scatter Channel) vs FSC (Forward Scatter Channel) graph, the lymphocytes are identified. Lymphocytes are identified with gated on positive CD19 marker for quantify CD69 (a marker of activated B lymphocytes) MFI (mean fluorescent intensity/cell). The signal ratio is converted to percent inhibition using the following equation: % Inhibition=100−[(Test Compound−Median Min)/(Median Max−Median Min)×100].
as §3

[3] = Rat Oral Bioavailability; format: in vivo, Sprague-Dawley rats; details: Sprague-Dawley, plasma, PO 3 mg/kg vs IV 1 mg/kg, read-out: Rat Oral Bioavailability (% F)
Experimental: The test compound is administered to Sprague-Dawley rats intravenously (IV) at 1 mg/kg (using vehicles of either: 20% CAPTISOL® in 25 mM sodium phosphate buffer, pH2 quantum satis; or 25% DMA, 15% EtOH, 10% propylene glycol, 25% 2-pyrrolidone, and 25% purified water) and orally (PO) at 3 mg/kg (using a vehicle of 1% hydroxyethyl cellulose, 0.25% polysorbate 80, 0.05% Antifoam 1510-US, and purified water quantum satis). Serial blood samples are collected at 0.08, 0.25, 0.5, 1, 2, 4, 8, and 12 h post dose for IV bolus and at 0.25, 0.5, 1, 2, 4, 8, and 12 h post dose after oral administration. After treatment with an EDTA […], plasma is obtained by centrifugation and stored at −70° C. until analysis by LC-MS/MS. Test article concentration is determined in plasma and uploaded into the Watson LIMS™ system where noncompartmental analysis is used to calculate Area Under the Curve (AUC) for both IV and PO arms. Bioavailability (% F) is calculated via the following equation, %F=(AUCPO×DoseIV)/(AUCIV×DosePO)×100. Table 3 indicates the rat oral bioavailability of select BTK inhibitors.

[4] = target: human EGFR (Homo sapiens (Human), UniProt P00533); experiment: EGFR LANTHASCREEN Eu Kinase Binding Assay; details: IC50 value ± standard deviation; truncated GST-labeled EGFR, kinase tracer 199; read-out: hEGFR Rel IC50
Experimental: as §1, §2

[5] = tested on: type II collagen-induced arthritis (CIA) rat model; experiment: Rat In Vivo Collagen-Induced Arthritis Assay; set-up: species or system Female Lewis rats; details: for % inhibition paw thickness AUC vs Vehicle control / % paw thickness AUC (mm) ± SE: CIA rats, 9 days; for arthritis severity in CIA rats: compared to vehicle treated CIA rats
Experimental: A type II collagen-induced arthritis (CIA) rat model may be used to evaluate the therapeutic effects of compounds. Female Lewis rats (Charles River Charles River Laboratories, Inc.) with a mean body weight of 155-175 g are used for the study. Animals are fed with standard rodent chow and provided water ad libitum. Immunization emulsion is prepared with 2 mg/ml bovine collagen-II mixed with an equal volume of incomplete Freund's adjuvant (IFA). Rats are immunized intradermally with 0.4 ml collagen emulsion in two sites each on the lower lumbar region, above the base of the tail on day 1, and again on day 8. Animals are randomized based on the paw thickness and body weight on day 11 into study groups, with 8 rats in each group. Compounds are prepared in 1% HEC/0.25% P80/0.05% anti-foam in purified water and dosed daily via oral gavage for 9 days. Paw thickness is quantitated daily using a caliper measurement in the right ankle site.
The inhibition by the compounds of the invention is evaluated using Dunnett's post test for multiple comparisons for the CIA rat groups treated with the indicated Example compound, at the indicated dose, as compared to CIA rat groups treated with vehicle, and differences of P<0.05 are considered to be significant. […] Mean sum paw thickness is decreased compared to vehicle treated CIA rats. Mean percent paw thickness inhibition during the treatment period illustrates dose-related improvement.
Table 4 indicates the in vivo activity for exemplified BTK inhibitors in the collagen-induced arthritis model (SE=standard error).

[6] = tested on: normal rats; experiment: In vivo administration to normal rats for four days (tolerability/toxicity)
From the text: Compounds of the invention, for instance Example 1, show an advantageous combination of pharmacological properties, such as potency, high oral in vivo availabilty, in vivo efficacy, and a favorable toxicity profile in preclinical testing.

human EGFR, sequence (P00533 668-1210): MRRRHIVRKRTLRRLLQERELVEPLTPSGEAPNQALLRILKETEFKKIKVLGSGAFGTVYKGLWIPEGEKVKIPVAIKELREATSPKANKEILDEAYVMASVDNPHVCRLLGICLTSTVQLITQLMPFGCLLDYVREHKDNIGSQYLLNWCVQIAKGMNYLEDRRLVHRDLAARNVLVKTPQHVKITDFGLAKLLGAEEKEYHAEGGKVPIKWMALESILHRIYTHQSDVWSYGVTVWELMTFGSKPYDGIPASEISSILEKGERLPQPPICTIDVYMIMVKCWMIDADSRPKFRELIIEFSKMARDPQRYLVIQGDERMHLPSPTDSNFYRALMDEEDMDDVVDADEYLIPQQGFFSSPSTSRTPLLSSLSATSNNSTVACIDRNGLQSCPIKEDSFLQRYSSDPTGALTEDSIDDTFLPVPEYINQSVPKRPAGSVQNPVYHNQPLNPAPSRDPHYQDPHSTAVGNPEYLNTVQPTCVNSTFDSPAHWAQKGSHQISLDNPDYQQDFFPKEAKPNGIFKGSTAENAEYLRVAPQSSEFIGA
human BTK, sequence (Q06187 whole entry): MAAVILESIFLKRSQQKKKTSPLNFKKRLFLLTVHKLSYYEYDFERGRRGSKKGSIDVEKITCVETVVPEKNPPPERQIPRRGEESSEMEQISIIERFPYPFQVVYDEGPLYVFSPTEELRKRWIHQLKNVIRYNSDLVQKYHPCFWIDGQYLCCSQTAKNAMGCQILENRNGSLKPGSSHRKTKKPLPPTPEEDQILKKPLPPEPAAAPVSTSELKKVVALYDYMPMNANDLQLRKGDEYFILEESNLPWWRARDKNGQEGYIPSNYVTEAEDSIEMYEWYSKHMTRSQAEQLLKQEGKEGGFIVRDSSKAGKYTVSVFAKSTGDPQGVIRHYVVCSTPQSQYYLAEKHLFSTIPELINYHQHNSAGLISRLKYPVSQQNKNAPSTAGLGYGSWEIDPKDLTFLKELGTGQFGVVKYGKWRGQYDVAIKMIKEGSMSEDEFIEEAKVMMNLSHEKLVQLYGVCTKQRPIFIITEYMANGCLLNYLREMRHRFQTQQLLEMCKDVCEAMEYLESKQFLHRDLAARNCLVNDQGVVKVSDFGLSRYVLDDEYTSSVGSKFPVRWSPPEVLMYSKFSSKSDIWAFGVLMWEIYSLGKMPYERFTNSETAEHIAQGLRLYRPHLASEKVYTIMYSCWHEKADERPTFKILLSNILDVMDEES

Row | SMILES | IC50 [1] | IC50 [2] | bioavailability [3] | IC50 [4] | % inhibition paw thickness AUC vs Vehicle control ([5]; 0.3 mg/kg/d oral) | % paw thickness AUC (mm) ± SE ([5]; 0.3 mg/kg/d oral) | % inhibition paw thickness AUC vs Vehicle control ([5]; 1 mg/kg/d oral) | % paw thickness AUC (mm) ± SE ([5]; 1 mg/kg/d oral) | % inhibition paw thickness AUC vs Vehicle control ([5]; 3 mg/kg/d oral) | % paw thickness AUC (mm) ± SE ([5]; 3 mg/kg/d oral) | arthritis severity in CIA rats [5] | % inhibition paw thickness AUC vs Vehicle control ([5]; 10 mg/kg/d oral) | % paw thickness AUC (mm) ± SE ([5]; 10 mg/kg/d oral) | % inhibition paw thickness AUC vs Vehicle control ([5]; 0.5 mg/kg/d oral) | % paw thickness AUC (mm) ± SE ([5]; 0.5 mg/kg/d oral) | tolerability when administered in vivo [6] | toxicity in vivo [6]
1 | C=CC(=O)N1CC(Nc2cncc(-c3cnc(Oc4cccc(OC(F)F)c4)nc3)n2)C1 [Example 24, 1-[3-[[6-[2-[3-(difluoromethoxy)phenoxy]pyrimidin-5-yl]pyrazin-2-yl]amino]azetidin-1-yl]prop-2-en-1-one] | 8.53 ± 3.24 nM | 177 ± 41.6 nM | 41% |  |  |  | 28% | 65.04 ± 2.31 mm | 49% | 61.43 ± 4.47 mm | dose-related reduction | 63% | 59.24 ± 1.49 mm |  |  |  | 
2 | C=CC(=O)N1CCC(Nc2cncc(-c3cnc(Oc4cccc(Cl)c4)nc3)c2)CC1 [Example 1, 1-[4-[[5-[2-(3-chlorophenoxy)pyrimidin-5-yl]-3-pyridyl]amino]-1-piperidyl]prop-2-en-1-one] | 25.3 ± 5.42 nM | 393 ± 128 nM | 74% | 0.47 ± 0.0936 µM |  |  | 47% | 69.6 ± 2.0 mm | 81% | 63.4 ± 1.3 mm | dose-related reduction |  |  | 23% | 73.9 ± 2.5 mm | generally well tolerated | advantageous lack of toxicity
3 | C=CC(=O)N1CC[C@H](Nc2cncc(-c3cnc(Oc4cccc(OC(F)F)c4)nc3)c2)C1 [Example 5, 1-[(3S)-3-[[5-[2-[3-(difluoromethoxy)phenoxy]pyrimidin-5-yl]-3-pyridyl]amino]pyrrolidin-1-yl]prop-2-en-1-one] |  | 485 ± 234 nM | 36.6% |  |  |  | 34% | 71.68 ± 2.24 mm | 58% | 67.18 ± 1.07 mm |  |  |  |  |  |  | 

Continued, in another order:

Row | IC50 [1] | IC50 [2] | bioavailability [3] | IC50 [4] | SMILES | % inhibition paw thickness AUC vs Vehicle control ([5]; 0.3 mg/kg/d oral) | % paw thickness AUC (mm) ± SE ([5]; 0.3 mg/kg/d oral) | % inhibition paw thickness AUC vs Vehicle control ([5]; 1 mg/kg/d oral) | % paw thickness AUC (mm) ± SE ([5]; 1 mg/kg/d oral) | % inhibition paw thickness AUC vs Vehicle control ([5]; 3 mg/kg/d oral) | % paw thickness AUC (mm) ± SE ([5]; 3 mg/kg/d oral) | arthritis severity in CIA rats [5] | % inhibition paw thickness AUC vs Vehicle control ([5]; 10 mg/kg/d oral) | % paw thickness AUC (mm) ± SE ([5]; 10 mg/kg/d oral) | % inhibition paw thickness AUC vs Vehicle control ([5]; 0.5 mg/kg/d oral) | % paw thickness AUC (mm) ± SE ([5]; 0.5 mg/kg/d oral) | tolerability when administered in vivo [6] | toxicity in vivo [6]
4 | 9.44 ± 2.26 nM | 261 ± 145 nM | 44.6% | 22.2 ± 19.5 µM | C=CC(=O)N1CC[C@H](Nc2cncc(-c3cnc(Nc4cccc(OC(F)(F)F)c4)nc3)n2)C1 [Example 33, 1-[(3S)-3-[[6-[2-[3-(trifluoromethoxy)anilino]pyrimidin-5-yl]pyrazin-2-yl]amino]pyrrolidin-1-yl]prop-2-en-1-one] | 24% | 73.61 ± 2.09 mm | 52% | 68.32 ± 2.30 mm | 59% | 67.00 ± 1.52 mm | dose-related reduction |  |  |  |  |  | 
5 | 9.49 ± 3.21 nM | 419 ± 118 nM | 54.1% | 0.366 ± 0.087 µM | C=CC(=O)N1CC(Nc2cncc(-c3cnc(Oc4cccc(Cl)c4)nc3)n2)C1 [Example 31, 1-[3-[[6-[2-(3-chlorophenoxy)pyrimidin-5-yl]pyrazin-2-yl]amino]azetidin-1-yl]prop-2-en-1-one] |  |  | 62% | 66.10 ± 1.83 mm | 81% | 63.70 ± 0.96 mm | dose-related reduction | 82% | 64.33 ± 1.00 mm |  |  |  | 
6 | 33.7 ± 10.8 nM | 664 ± 314 nM | 38.4% | 10.4 ± 11.5 µM | C=CC(=O)N1CC(Nc2cncc(-c3cnc(Oc4cccc(OC(F)(F)F)c4)nc3)n2)C1 [Example 27, 1-[3-[[6-[2-[3-(trifluoromethoxy)phenoxy]pyrimidin-5-yl]pyrazin-2-yl]amino]azetidin-1-yl]prop-2-en-1-one] |  |  | 24% | 73.30 ± 0.95 mm | 45% | 69.58 ± 1.26 mm | dose-related reduction |  |  |  |  |  | 

Source: patent publication US11542249B2, “BTK inhibitor compounds” (Eli Lilly and Company, priority 2017, dated 2023)
